Data as given in US20210330611A1, “THERAPY FOR NEUROLOGICAL DISEASES/DISORDERS” (priority 2020, published 2021).
Where “and” joins values, the source holds several entries; their conditions need not be identical. Equal values may be shown once. Where a name gives a salt, the structure may show the parent alone. Read-outs that look alike come from different tables or passages of the source.

How the values were obtained:
[1] = system: fibrin-induced microglia activation; experiment: Image-based assay of fibrin-induced microglia activation (HTS and dose response); format: cell-based, rat; details: primary microglia HTS; for inhibition at 10 µM: Rattus norvegicus, Microglia, read-out: Fibrin % inhibition
[2] = system: LPS-induced microglia activation; experiment: Image-based assay of LPS-induced microglia activation (HTS and dose response); format: cell-based, rat; details: for inhibition at 10 µM: Rattus norvegicus, Microglia, read-out: LPS % inhibition
[3] = system: fibrin- and LPS-induced microglia activation; experiment: cells; format: cell-based, rat
primary rat microglia [4] = experiment: Cell toxicity (dead cells, size <150 μm2) in LPS assay
primary rat microglia [5] = experiment: Cell toxicity (dead cells, size <150 μm2) in coated fibrin (cFib) assay;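 on Fibrin % cell toxicity: share of dead cells sized under 150 µm2 at 10 µM in fibrin-stimulated microglia HTS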
[6] = primary microglia HTS, 10 μM, LPS-stimulated, cell size >800 μm^2 as marker of activation
[7] = HTS of 1907 compounds, quadrant by fibrin and LPS inhibition
[8] = primary microglia HTS, 10 μM, LPS assay, cell size <150 μm^2 as marker of toxicity
[9] = primary microglia HTS, 10 μM, fibrin assay, cell size <150 μm^2 as marker of toxicity
[10] = fibrin stimulation, increased cell size (>800 μm^2) as marker of activation
[11] = 48 h, primary microglia HTS, LPS stimulation, increased cell size (>800 μm^2) as marker of activation
[12] = quadrant by fibrin and LPS inhibition in HTS of 1907 compounds
[13] = primary microglia HTS, LPS stimulation, decreased size (<150 μm^2) as marker of toxicity
[14] = primary microglia HTS, fibrin stimulation, decreased size (<150 μm^2) as marker of toxicity
[15] = fibrin stimulation, activation = cell size >800 μm2
[16] = 48 h, primary microglia HTS, LPS stimulation, activation = cell size >800 μm2
[17] = primary microglia HTS, LPS stimulation, toxicity = cell size <150 μm2
[18] = primary microglia HTS, fibrin stimulation, toxicity = cell size <150 μm2
[19] = primary microglia HTS, LPS stimulation, increased cell size (>800 μm^2) as marker of activation
[20] = primary HTS, 10 μM, LPS-stimulated primary microglia
[21] = primary HTS, 10 μM, LPS assay, dead cells size <150 μm2
[22] = primary HTS, 10 μM, fibrin assay, dead cells size <150 μm2

Row | Compound | Quadrant (FIG. 5b) [3, 12] | LPS % cell toxicity (primary rat microglia [4]; [13]) | Fibrin % cell toxicity (primary rat microglia [5]; [14]) | LPS % cell toxicity (primary rat microglia [4]; [17]) | Fibrin % cell toxicity (primary rat microglia [5]; [18]) | also measured
1 | COc1cc2c3cc1Oc1cc(ccc1O)C[C@@H]1c4c(cc(OC)c(O)c4Oc4ccc(cc4)C[C@@H]3N(C)CC2)CC[N+]1(C)C [Tubocurarine] |  |  |  |  |  | inhibition at 10 µM ([1]; 10 μM, fibrin-stimulated, cell size >800 μm^2 as marker of activation): -1%; inhibition at 10 µM [2, 6]: 19%; Quadrant (FIG. 5b) [3, 7]: Q4; LPS % cell toxicity (primary rat microglia [4]; [8]): 0%; Fibrin % cell toxicity (primary rat microglia [5]; [9]): 0%
2 | C#C[C@]1(OC(C)=O)CC[C@H]2[C@@H]3CCC4=CC(=O)CC[C@@H]4[C@H]3CC[C@@]21C [Norethindrone Acetate] | Q4 | 0% | 1% |  |  | inhibition at 10 µM [1, 10]: -5%; inhibition at 10 µM [2, 11]: 18%
3 | CC/C=C\C/C=C\C/C=C\C/C=C\C/C=C\CCCC(=O)OCC [Icosapent ethyl] | Q4 |  |  | 0% | 0% | inhibition at 10 µM [1, 15]: -13%; inhibition at 10 µM [2, 16]: 1%
4 | Nonoxynol-9 | Q4 | 0% | 0% |  |  | Fibrin % inhibition [1, 10]: −7%; LPS % inhibition [2, 19]: 23%
5 | COc1nc(N)nc2c1ncn2[C@@H]1O[C@H](CO)[C@@H](O)[C@@H]1O [Nelarabin] | Q4 | 0% | 0% |  |  | Fibrin % inhibition [1, 10]: −10%; LPS % inhibition [2, 19]: 0%
6 | Carboplatin |  |  |  |  |  | LPS % inhibition [2, 20]: 4% and 7%; Quadrant (FIG. 5b) ([3]; primary HTS, 10 μM): Q4; LPS % cell toxicity (primary rat microglia [4]; [21]): 0%; Fibrin % cell toxicity (primary rat microglia [5]; [22]): 1%
7 | CCC(=O)O[C@]1(C(=O)SCF)[C@H](C)C[C@H]2[C@@H]3C[C@H](F)C4=CC(=O)C=C[C@]4(C)[C@@]3(F)[C@@H](O)C[C@@]21C [Fluticasone Propionate] | Q2 | 3% and 4% | 7% and 5% |  |  | inhibition at 10 µM [1, 10]: 108%
8 | Benzalkonium Chloride | Q2 | 31% | 71% |  |  | LPS % inhibition [2, 19]: 122%
9 | CCN1CCCC1CNC(=O)c1cc(S(N)(=O)=O)ccc1OC (centres unmarked) [Sulpiride] |  |  |  |  |  | inhibition at 10 µM [2, 6]: 11%; LPS % inhibition [2, 6]: 7%; Quadrant (FIG. 5b) [3, 7]: Q4; LPS % cell toxicity (primary rat microglia [4]; [8]): 0%; Fibrin % cell toxicity (primary rat microglia [5]; [9]): 1%
10 | CC[C@H](C)[C@H]1O[C@]2(CC[C@@H]1C)C[C@@H]1C[C@@H](C/C=C(\C)[C@@H](O[C@H]3C[C@H](OC)[C@@H](O[C@H]4C[C@H](OC)[C@@H](O)[C@H](C)O4)[C@H](C)O3)[C@@H](C)/C=C/C=C3\CO[C@@H]4[C@H](O)C(C)=C[C@@H](C(=O)O1)[C@]34O)O2 [Ivermectin] | Q4 |  |  | 0% | 1% and 0% | LPS % inhibition ([2]; primary microglia HTS, LPS stimulation, activation = cell size >800 μm2): 10% and 19%
11 | C[C@@H]1[C@H](O)[C@@H](C)/C=C/C=C/CC/C=C/C=C/C=C/C=C/C(O[C@H]2O[C@H](C)[C@@H](O)[C@H](N)[C@@H]2O)CC2O[C@](O)(CC(O)C(O)CCC(O)CC(O)CC(O)CC(=O)O[C@H]1C)CC(O)C2C(=O)O (some centres unmarked) [Nystatin] | Q4 | 1% | 0% and 1% |  |  | 
12 | CCCC1O[C@@H]2C[C@H]3[C@@H]4CCC5=CC(=O)C=C[C@]5(C)[C@H]4[C@@H](O)C[C@]3(C)[C@]2(C(=O)CO)O1 (some centres unmarked) [Budesonide] | Q2 | 5% and 1% | 3% and 6% |  |  | inhibition at 10 µM [1, 10]: 110%
13 | CC(=O)/N=c1/sc(S(N)(=O)=O)nn1C [Methazolamide] | Q4 | 0% | 1% |  |  | inhibition at 10 µM [2, 11]: 10%
14 | C[C@@H](O)[C@H]1C(=O)N2C(C(=O)O)=C(S[C@@H]3CN[C@H](C(=O)N(C)C)C3)[C@H](C)[C@H]12 [Meropenem] | Q4 | 0% | 1% |  |  | 
15 | C[C@]1(Cn2ccnn2)[C@H](C(=O)O)N2C(=O)C[C@H]2S1(=O)=O [Tazobactam] |  |  |  |  |  | Quadrant (FIG. 5b) [3, 7]: Q4; LPS % cell toxicity (primary rat microglia [4]; [8]): 0%; Fibrin % cell toxicity (primary rat microglia [5]; [9]): 1% and 0%
16 | CNC[C@H](O)[C@@H](O)[C@H](O)[C@H](O)CO [Meglumine] | Q4 | 0% and 1% | 0% and 1% |  |  | 
17 | CC(=O)[C@@]1(O)CC[C@H]2[C@@H]3C[C@H](C)C4=CC(=O)C=C[C@]4(C)[C@@]3(F)[C@@H](O)C[C@@]21C [Fluorometholone] | Q2 | 1% and 7% | 6% and 3% |  |  | inhibition at 10 µM [1, 10]: 104%

Row | Compound | Quadrant (FIG. 5b) [3, 12] | LPS % cell toxicity (primary rat microglia [4]; [13]) | Fibrin % cell toxicity (primary rat microglia [5]; [14]) | LPS % cell toxicity (primary rat microglia [4]; [17]) | Fibrin % cell toxicity (primary rat microglia [5]; [18]) | also measured
18 | CN(C)CCCC1(c2ccc(F)cc2)OCc2cc(C#N)ccc21 (centres unmarked) [Citalopram] |  |  |  |  |  | inhibition at 10 µM [2, 20]: 10%; LPS % inhibition [2, 20]: 8%; Quadrant (FIG. 5b) ([3]; primary HTS, 10 μM): Q4; LPS % cell toxicity (primary rat microglia [4]; [21]): 0%; Fibrin % cell toxicity (primary rat microglia [5]; [22]): 0%
19 | CC[C@@H](CO)NC(=O)[C@@H]1C=C2c3cccc4c3c(cn4C)C[C@H]2N(C)C1 [Methysergide Maleate] | Q4 | 0% | 0% and 1% |  |  | 
20 | NCC1(CC(=O)O)CCCCC1 [Gabapentin] | Q4 |  |  | 1% and 0% | 1% | inhibition at 10 µM [2, 16]: 19%
21 | CC(C)(O/N=C(\C(=O)N[C@@H]1C(=O)N2C(C(=O)[O-])=C(C[n+]3ccccc3)CS[C@H]12)c1csc(N)n1)C(=O)O [Ceftazidime] |  |  |  |  |  | inhibition at 10 µM [2, 20]: 17%; LPS % inhibition [2, 20]: 30%; Quadrant (FIG. 5b) ([3]; primary HTS, 10 μM): Q4; LPS % cell toxicity (primary rat microglia [4]; [21]): 1%; Fibrin % cell toxicity (primary rat microglia [5]; [22]): 1%
22 | CN(C)CC/C=C1/c2ccccc2Sc2ccc(Cl)cc21 [Chlorprothixene] |  |  |  |  |  | Quadrant (FIG. 5b) ([3]; primary HTS, 10 μM): Q4; LPS % cell toxicity (primary rat microglia [4]; [21]): 1% and 0%; Fibrin % cell toxicity (primary rat microglia [5]; [22]): 1%
23 | NC[C@H](O)c1ccc(O)c(O)c1 [Norepinephrine] | Q4 | 0% | 1% |  |  | 
24 | Oc1ccc(C2CNCCc3c2cc(O)c(O)c3Cl)cc1 (centres unmarked) [Fenoldopam] | Q4 |  |  | 0% | 1% and 0% | 
25 | OCCOCCN1CCN(C(c2ccccc2)c2ccc(Cl)cc2)CC1 (centres unmarked) [Hydroxyzine] | Q4 |  |  | 0% | 0% and 1% | 
26 | Nc1nc2ncc(CNc3ccc(C(=O)N[C@@H](CCC(=O)O)C(=O)O)cc3)nc2c(=O)[nH]1 [Folic Acid] | Q4 |  |  | 0% and 1% | 1% | inhibition at 10 µM [2, 16]: 22%
27 | Nc1ccn([C@@H]2CS[C@H](CO)O2)c(=O)n1 [Lamivudine] | Q4 |  |  | 0% | 1% | 
28 | CCC(Cc1c(I)cc(I)c(N)c1I)C(=O)O (centres unmarked) [lopanic Acid] |  |  |  |  |  | IC50 ([2]; LPS-induced microglia activation, dose response, read-out: LPS IC50 (uM) (Suppl. Table 7)): > 20 µM; Quadrant (FIG. 5b) [3, 7]: Q3; Cherry-picked Hit (Suppl. Table 7) ([3]; hit classification in microglia HTS): HIT (Hits were defined as molecules that exhibited greater than 50% inhibition of either fibrin or LPS activation); IC50 (primary rat microglia [4]; read-out: Cell Toxicity IC50 (uM) [LPS assay], LPS assay): > 20 µM; IC50 (primary rat microglia [5]; read-out: Cell Toxicity IC50 (uM) [cFib assay], cFib assay): > 20 µM
29 | OC[C@H]1O[C@@H](n2cnc3c(O)ncnc32)[C@H](O)[C@@H]1O [Inosine] |  | 2% | 7% | 0% | 1% | inhibition at 10 µM [1, 15]: -31%; inhibition at 10 µM [1, 10]: 111%; inhibition at 10 µM [2, 16]: -11%; inhibition at 10 µM [2, 11]: 115%
30 | COc1cccc(C2(O)CCCCC2CN(C)C)c1 (centres unmarked) [Tramadol] |  |  |  |  |  | Quadrant (FIG. 5b) [3, 7]: Q4; LPS % cell toxicity (primary rat microglia [4]; [8]): 0%; Fibrin % cell toxicity (primary rat microglia [5]; [9]): 1%
31 | N=C(N)NC(=O)Cc1c(Cl)cccc1Cl [Guanfacine] | Q4 |  |  | 0% | 1% | 
32 | CCCCCN(C)CCC(O)(P(=O)(O)O)P(=O)(O)O [Ibandronate] | Q4 |  |  | 0% | 0% and 1% | 
33 | CC(C)(C)NC(=O)[C@H]1CC[C@H]2[C@@H]3CC[C@H]4NC(=O)C=C[C@]4(C)[C@H]3CC[C@]12C [Finasteride] | Q4 |  |  | 1% and 0% | 1% and 0% | 
34 | C[N+]1(C)[C@@H]2C[C@@H](OC(=O)[C@H](CO)c3ccccc3)C[C@H]1[C@@H]1O[C@@H]12 [Methscopolamine Bromide] | Q4 | 0% | 1% |  |  | 
